What was measured:
[1] = test system: HIV patients; settings: cited from earlier work; for efficacy in clinical trails investigating HIV-mediated neuropathic pain: Shlay et al. (1998), Kieburtz et al. (1998)
[2] = test system: rat sciatic nerve; experiment: gp120-mediated CGRP release from rat sciatic nerve in the presence or absence of VR1 inhibitors (Method C); settings: for block of CGRP release from gp120-stimulated sciatic nerve: result in words; for CGRP release: gp120 250 pg/ml in the presence of CAZ (1 µM) or Cpd. 1 (20 nM)
Experimental: After 5 min, 10 min and 20 min supernatant was substituted with fresh solution or RAB buffer pH 7.4 and the samples placed on ice until analysis. All samples were analyzed by EIA for CGRP release and normalized by the dry weight of the particular sciatic nerve.
Male Wistar rats (180-220 g) are anesthetized using Isofluran, Dinitricoxide and Oxygen (5:68:27 (v/v/v)) in a vaporisator. The hind legs are shaved and opened along the femur. Using tweezers and scissors the Musculus gluteus superficialis and Musculus bicepsfemoris are separated gaining access to the Nervus ischiadicus. The Nervus ischiadicus is cut proximally 1 cm before entry into the spine and laterally at the branching of Nervus fibularis and Nervus tibialis. […] The fixed nerve is transferred to a 1.5 ml eppendorf tube containing 300 µl RAB, pH 7.4 at RT.
To reset all samples, sciatic nerve preparations are transferred 5 min prior to stimulation to fresh 300 µl of RAB pH 7.4 (prestimulation ― point zero). Stimulation is performed for 5 or 10 min with Capsaicin solution (100 nM Capsaicin in RAB pH 7.4), RAB pH 4.5 or preheated RAB pH 7.4 (50°C) in the presence or absence of inhibitors. To evaluate post-stimulation CGRP-release sciatic nerve preparations are transferred in 5-min-intervals to fresh tubes containing RAB pH 7.4. Supernatants of each sample are transferred to EIA plates (CGRP Release Kit, SpiBio, Paris, France) and analyzed in triplicate (3 x 100µl) according to the manufacterer's protocol. Upon completion of the experiment the sciatic nerve preparations are carefully removed from the spatula, dried on 3MM paper and weighed. CGRP concentrations obtained from the CGRP-release EIA are finally normalized to the dry weight of the sciatic nerve preparations.

[3] = test system: rat DRG neurons; experiment: Inhibition of gp120-mediated CGRP-release from rat DRG neurons (Method B); settings: for IC50: Rattus norvegicus, DRG neuron; for inhibition of gp120-mediated CGRP release from DRG neurons: result in words
[4] = test system: rat sciatic nerve; experiment: CGRP-release from isolated rat sciatic nerve upon stimulation (Method C); settings: Capsaicin 100 nM, t0-t5 stimulation period

## CN(C)CCC=C1c2ccccc2CCc2ccccc21 [Amitriptyline]
[1]
  efficacy in clinical trails investigating HIV-mediated neuropathic pain: completely ineffective

## Cc1cccc(C)c1OCC(C)N (centres unmarked) [Mexiletine]
[1]
  efficacy in clinical trails investigating HIV-mediated neuropathic pain: completely ineffective

## Oc1cc2c(cc1O)CN(C(=S)NCCc1ccc(Cl)cc1)CCC2 [CAZ, Capsazepin]
[2]
  block of CGRP release from gp120-stimulated sciatic nerve: capable to block CGRP release
[3]
  IC50: 109 nM
  inhibition of gp120-mediated CGRP release from DRG neurons: completely inhibited

## CC(Cc1ccc(O)c(O)c1)C(C)Cc1ccc(O)c(O)c1 (centres unmarked) [NGDA, Nordihydroguaiaretic Acid]
[3]
  IC50: 43000 nM
  inhibition of gp120-mediated CGRP release from DRG neurons: completely inhibited

## N#CC(=C(/N)Sc1ccccc1N)/C(C#N)=C(\N)Sc1ccccc1N [Compound U0126]
[3]
  IC50: 1.9 nM
  inhibition of gp120-mediated CGRP release from DRG neurons: completely inhibited

## C[S+]([O-])c1ccc(-c2nc(-c3ccncc3)c(-c3ccc(F)cc3)[nH]2)cc1 (centres unmarked) [SB203580]
[3]
  inhibition of gp120-mediated CGRP release from DRG neurons: completely inhibited

## CC(C)Cc1ccc(C(C)C(=O)O)cc1 (centres unmarked) [Ibuprofen]
[3]
  inhibition of gp120-mediated CGRP release from DRG neurons: can not inhibit

## COc1cc(CNC(=O)CCCC/C=C/C(C)C)ccc1O [CAPS, Capsaicin]
[1]; randomized, double-masked clinical trail, Paice et al. (2000)
  pain in HIV patients with chronic DSP: strongly increased pain
[4]; time 0 min
  CGRP-release: 0.05923 ng/mg ng CGRP/mg nerve dry weight
[4]; time 5 min
  CGRP-release: 5.9+/-1.3 ng/mg ng CGRP/mg nerve dry weight
[4]; time 10 min
  CGRP-release: 5.3+/-0.2 ng/mg ng CGRP/mg nerve dry weight
[4]; time 20 min
  CGRP-release: 4.0+/-0.1 ng/mg ng CGRP/mg nerve dry weight
[4]; time -5 min
  CGRP-release: 0 ng CGRP/mg nerve dry weight

## CCN(CC)CCCC(C)Nc1c2ccc(Cl)cc2nc2ccc(OC)cc12 (centres unmarked) [QN, Quinacrine]
[3]
  IC50: 1530 nM
  inhibition of gp120-mediated CGRP release from DRG neurons: completely inhibited

## O=C(NCc1ccc(OC(F)(F)F)cc1)Nc1cccc2c1CC(O)CC2 (centres unmarked) [Cpd. Example 1, N-(7-hydroxy-5,6,7,8-tetrahydro-naphthalen-1-yl)-N'-(4-trifluoromethoxy-benzyl)-urea]
[2]; time 0 min
  CGRP release: 0
[2]; time 5 min
  CGRP release: 0
[2]; time 10 min
  CGRP release: 0
[2]; time 20 min
  CGRP release: 0
[2]; time -5 min
  CGRP release: 0
[2]
  block of CGRP release from gp120-stimulated sciatic nerve: capable to block CGRP release
[3]
  IC50: 0.44 nM
  inhibition of gp120-mediated CGRP release from DRG neurons: completely inhibited

## COc1cccc(-c2cc(=O)c3ccccc3o2)c1N [PD98059]
[3]
  IC50: 9.36 nM
  inhibition of gp120-mediated CGRP release from DRG neurons: completely inhibited
